Test results: patent publication US20170022201A1, “MACROCYLIC PYRIDINE DERIVATIVES” (Janssen Pharmaceutica NV, priority 2014, published 2017)

Tests used:
PIK3C3 lipid kinase = PIK3C3 lipid kinase (Homo sapiens, UniProt Q8NEB9); assay: Biochemical Vps34 lipid kinase assay (ADP-Glo); details: 20 μM ATP; for remaining activity at 1 µM: 1 h, read-out: VPS34_1microM_%ofcntrl; for remaining activity at 1 µM / VPS34_1microM_%ofcntrl: single dose 1 μM, residual activity compared to control (DMSO); for IC50: serial dilution 10 μM to 0.3 nM, pIC50 = -log IC50 (M)
Procedure: A non-radiometric kinase assay (ADP-Glo™ Assay, Promega, Madison, Wi, USA) was used for measuring the kinase activity of the PIK3C3 lipid kinase. All kinase assays were performed in 96-well half-area microtiter plates in a 25 μl reaction volume. The reaction cocktail was pipetted in 3 steps in the following order: • 10 μl of ATP solution (in assay buffer, see below) • 5 μl of test sample in 5% DMSO 10 μl of enzyme/substrate mixture
All lipid kinase assays contained 50 mM HEPES (4-(2-hydroxyethyl)-1-piperazineethanesulfonic acid)—NaOH, pH 7.5, 1 mM EGTA ((ethylene glycol tetraacetic acid), 100 mM NaCl, 0.03% CHAPS (3-[(3-Cholamidopropyl) dimethylammonio]-1-propanesulfonate), 2 mM DTT (Dithiothreitol), 20 μM ATP (corresponding to the apparent ATP-Km), kinase (7.6 nM) and substrate (50 μM). The assay for PIK3C3 additionally contained 3 mM MnCl2.
The reaction cocktails were incubated at 30° C. for 60 minutes. The reaction was stopped with 25 μl ADP-Glo™ reagent per well. Plates were incubated for 40 minutes at room temperature, followed by addition of 50 μl kinase detection reagent per well and incubation for 60 minutes at room temperature. Signal was determined with a microplate luminescence reader (Victor, Perkin Elmer). The assay was either performed using a single dose of compound (1 μM final concentration in the assay reaction) with resulting data expressed as residual activity compared to control (DMSO), or using a serial (half-log) dilution of compounds starting at 10 μM and down to 0.3 nM (final concentrations in the assay) with data expressed as the pIC50.

EF2K = molecular target: T1, EF2K (Homo sapiens, UniProt O00418); assay: Biochemical EF2K lysate-based kinase assay (AlphaLISA p-eEF2 Thr56); details: LN-229 cell lysates, 10 mM ATP, pH 6.6; pIC50 = -log IC50 (M); read-out: eEF2K_C_alphalisa pIC50 (converted)
T1 construct: host or cells: LN-229 glioblastoma cell lysate
T1 sequence (O00418 1-725): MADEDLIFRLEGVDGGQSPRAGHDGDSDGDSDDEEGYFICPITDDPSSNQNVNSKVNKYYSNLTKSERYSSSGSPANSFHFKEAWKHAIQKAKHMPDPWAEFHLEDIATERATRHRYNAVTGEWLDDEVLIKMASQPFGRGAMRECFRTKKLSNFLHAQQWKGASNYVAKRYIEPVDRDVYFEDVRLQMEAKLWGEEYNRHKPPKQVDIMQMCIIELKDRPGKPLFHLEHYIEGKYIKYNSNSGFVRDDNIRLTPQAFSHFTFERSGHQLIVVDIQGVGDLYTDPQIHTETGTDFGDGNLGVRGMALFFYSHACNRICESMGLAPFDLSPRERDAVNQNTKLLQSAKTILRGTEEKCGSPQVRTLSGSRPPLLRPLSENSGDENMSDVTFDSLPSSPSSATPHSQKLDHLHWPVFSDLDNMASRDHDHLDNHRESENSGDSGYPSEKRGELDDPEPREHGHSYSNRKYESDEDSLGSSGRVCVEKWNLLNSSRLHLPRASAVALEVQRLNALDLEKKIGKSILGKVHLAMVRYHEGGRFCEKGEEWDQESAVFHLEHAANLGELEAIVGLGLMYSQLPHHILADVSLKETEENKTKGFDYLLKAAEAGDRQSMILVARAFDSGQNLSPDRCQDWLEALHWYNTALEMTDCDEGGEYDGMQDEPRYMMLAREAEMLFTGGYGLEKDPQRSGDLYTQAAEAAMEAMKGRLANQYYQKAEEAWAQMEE
Text: LN-229 cells were purchased from ATCC (CRL-2611); these are glioblastoma cells. Cell lysates from LN229 were used in this kinase assay to provide both the kinase and the substrate (EF2). The AlphaLISA p-eEF2 (Thr56) detection assay was developed using a sandwich assay format with two specific antibodies recognizing different epitopes of the target, including one antibody against the phosphorylation site of interest. One anti-eEF2 antibody was conjugated onto AlphaLISA Acceptor beads, while the second antibody was biotinylated and captured by streptavidin coated Donor beads.
Compound was mixed with LN-229 cell lysates in the presence of a kinase buffer (e.g. HEPES) at a pH of 6.6, containing 10 mM Mg^2+ (e.g. magnesium acetate) and 10 mM adenosine-tri-phosphate (ATP) and incubated at room temperature for 15 minutes. The kinase reaction was stopped with excess ethylenediaminetetraacetic acid disodium salt and the biotinylated-anti phospho eEF2 antibody (3 nM) was added for 1 hour. Then the anti-EF2 acceptor beads (10 μg/ml) as well as the streptavidin coated donor beads (20 μg/ml) were added for 1 hour, and the AlphaLISA signal was measured in an Envision instrument once, left overnight, and measured again for the final read.

eEF2K = molecular target: T2, eEF2K (Homo sapiens, UniProt O00418); assay: EF2K cell-based assay (P-EF2 AlphaLISA, 2-deoxyglucose stimulated MCF10A cells); details: 2.5 mM 2-deoxyglucose 4 h, phosphorylation of EF2 at Thr 56, pIC50 = -log IC50 (M); for IC50: read-out: eEF2K_C_PThr56 pIC50 (converted)
T2 construct: in the immortalized epithelial breast cell lines, MCF10A; host or cells: MCF10A immortalized breast epithelial cells
T2 sequence (O00418 1-725): T1 sequence (O00418 1-725)
Procedure: In this assay, 2.5 mM 2-deoxyglucose was used to deplete intracellular ATP and activate 5′ adenosine monophosphate-activated protein kinase (AMPK) in the immortalized epithelial breast cell lines, MCF10A. MCF 10A cells were purchased from ATCC (CRL-10317).
MCF10A cells are seeded at a density of 1.25×10^5 Cells/ml at 100 μl/well in a 96-well plate and incubated for 24 hours (37° C., 5% CO2). Compound is added for 1 hour, and cell are stimulated with 2.5 mM of 2-deoxy-glucose for 4 hours. Medium is then removed, and cells are lysed in an ice-cold buffer M-PER (Thermo Scientific, 78501), containing protease and phosphatase inhibitors. P-EF2 levels are determined in these lysates using the P-EF2 AlphaLISA described above.

Chain of PIK3C3 lipid kinase (Q8NEB9 whole entry): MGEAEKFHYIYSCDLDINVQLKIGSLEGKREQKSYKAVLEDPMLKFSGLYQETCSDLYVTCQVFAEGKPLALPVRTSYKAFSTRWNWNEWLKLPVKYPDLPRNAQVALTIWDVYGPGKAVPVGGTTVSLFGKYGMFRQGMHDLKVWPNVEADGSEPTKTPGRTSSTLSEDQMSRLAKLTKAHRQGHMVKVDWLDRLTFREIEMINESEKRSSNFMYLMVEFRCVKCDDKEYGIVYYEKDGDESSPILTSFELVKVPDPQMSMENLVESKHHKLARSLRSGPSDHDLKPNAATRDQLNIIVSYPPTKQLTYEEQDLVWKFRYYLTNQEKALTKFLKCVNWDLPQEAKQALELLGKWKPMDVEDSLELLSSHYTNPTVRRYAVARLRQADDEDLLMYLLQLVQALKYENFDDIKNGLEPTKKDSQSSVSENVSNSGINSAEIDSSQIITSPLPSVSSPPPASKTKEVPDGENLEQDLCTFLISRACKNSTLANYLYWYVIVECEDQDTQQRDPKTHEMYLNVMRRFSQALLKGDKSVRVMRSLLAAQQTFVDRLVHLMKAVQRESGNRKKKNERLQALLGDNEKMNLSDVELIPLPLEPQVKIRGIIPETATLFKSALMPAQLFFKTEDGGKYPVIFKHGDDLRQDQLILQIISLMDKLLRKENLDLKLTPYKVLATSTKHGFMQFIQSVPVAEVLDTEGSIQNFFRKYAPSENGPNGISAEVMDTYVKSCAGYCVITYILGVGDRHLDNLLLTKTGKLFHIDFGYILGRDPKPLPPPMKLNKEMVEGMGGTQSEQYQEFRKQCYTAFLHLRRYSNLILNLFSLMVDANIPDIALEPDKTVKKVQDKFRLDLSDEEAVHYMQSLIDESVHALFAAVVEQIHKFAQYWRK

| Structure (SMILES) | remaining activity at 1 µM (PIK3C3 lipid kinase) [%] | IC50 (EF2K) [M] | IC50 (eEF2K) [M] | IC50 (PIK3C3 lipid kinase) [M] | VPS34_1microM_%ofcntrl (PIK3C3 lipid kinase) [%] | eEF2K_C_PThr56 pIC50 (eEF2K) |
| --- | --- | --- | --- | --- | --- | --- |
| CC1CN2CCN1Cc1cccc(c1)Nc1cc(ccn1)-c1cnc(nc1)N1CCCC1CCNC(=O)C2 (centres unmarked) [Compound 48] | 44.1 | 7.94e-08 | 3.16e-06 |  |  |  |
| CN1c2cccc(c2)Nc2cc(ccn2)-c2cnc(nc2)NCCCNC(=O)CN2CCC1CC2 [Compound 101] | 31.1 | 2e-07 | 3.98e-06 |  |  |  |
| CN1CCCN(C)c2ncc(cn2)-c2ccnc(c2)Nc2cccc(c2)CN2CCN(CC2)CC1=O [Compound 38] | 43.3 | 8.51e-08 | > 3.02e-05 |  |  |  |
| C=CCN1CCNC(=O)CN2CCN(CC2)Cc2cccc(c2)Nc2cc(ccn2)-c2cnc(nc2)C1 [Compound 130] | 57 | 1e-06 | 1.58e-06 |  |  |  |
| CC1(C)CN2CCN1CC(=O)NCCCNc1ncc(cn1)-c1ccnc(c1)Nc1cccc(c1)C2 [Compound 18] | 8.79 | 8.71e-08 | 1.05e-06 | 1.74e-07 |  |  |
| CC1CN2CCN1Cc1cccc(c1)Nc1cc(ccn1)-c1cnc(nc1)NCCCNC(=O)C2 (centres unmarked) [Compound 40] | 11 | 1.62e-07 | ~5.89e-06 | 2.63e-07 |  |  |
| O=C1CN2CCN(CC2)Cc2cccc(c2F)Nc2cc(ccn2)-c2cnc(nc2)NCCCN1 [Compound 1] |  | 1.05e-08 | 3.63e-07 | 4.9e-08 |  |  |
| O=C1CN2CCN(CC2)Cc2cccc(c2)Nc2cc(ccn2)-c2ccc(nc2)N2CCCC2CCN1 (single isomer, unassigned) [Compound 143] |  | 1.38e-05 | > 3.02e-05 | 2.14e-06 |  |  |
| O=C1NCCCNc2ncc(cn2)-c2ccnc(c2)Nc2cccc(c2)NC2CCN(CC2)C12CC2 [Compound 100] | 14.9 | 6.17e-08 | 2.75e-06 | 3.55e-07 |  |  |
| CC1CN2CCN1Cc1cccc(c1)Nc1cc(ccn1)-c1cnc(nc1)N1CC(O)CC1CCNC(=O)C2 (centres unmarked) [Compound 62] |  | 5.5e-09 | 8.51e-08 | 1.23e-06 |  |  |
| CC1CN2CCN1Cc1cccc(c1)Nc1cc(ccn1)-c1cnc(nc1)N1CCCC1CCNC(=O)C2 (centres unmarked) [Compound 47] |  | 8.51e-09 | 4.17e-07 | 9.12e-06 |  |  |
| O=C1CN2CCN(Cc3cccc(c3)Nc3cc(ccn3)-c3cnc(nc3)N3CCCC3CCN1)C(CO)C2 (centres unmarked) [Compound 46] |  | 1.32e-08 | 6.46e-07 | 2.34e-06 |  |  |
| NS(=O)(=O)NC1CC2CCNC(=O)C3(CC3)N3CCN(CC3)Cc3cccc(c3)Nc3cc(ccn3)-c3cnc(nc3)N2C1 (centres unmarked) [Compound 87] | 33.8 | 1.95e-08 | ~2.29e-06 |  |  |  |
| O=C1NCCC2CC(O)CN2c2ncc(cn2)-c2ccnc(c2)Nc2cccc(c2F)CN2CCN(CC2)C12CC2 (centres unmarked) [Compound 53] |  | 4.07e-09 | 8.51e-08 | 1.78e-07 |  |  |
| CNC(=O)c1ccc2cc1CN1CCN(CC1)CC(=O)NCCCNc1ncc(cn1)-c1ccnc(c1)N2 [Compound 9] | 7.1 | 3.47e-08 | ~5.5e-06 | 1.66e-07 |  |  |
| O=C1CN2CCN(CC2)C2(CC2)c2cccc(c2)Nc2cc(ccn2)-c2cnc(nc2)NCCCN1 [Compound 73] |  | 5.25e-06 | > 1e-05 | > 1e-05 |  |  |
| CN1CCCN(CCCO)c2ncc(cn2)-c2ccnc(c2)Nc2cccc(c2)CN2CCN(CC2)CC1=O [Compound 16] | 46.1 | > 3.02e-05 | > 3.02e-05 |  |  |  |
| O=C1NCCC2CC(O)CN2c2ncc(cn2)-c2ccnc(c2)Nc2cccc(c2)CN2CCN(CC2)C12CC2 (centres unmarked) [Compound 57] |  | 1.02e-08 | 3.09e-07 | 5.01e-06 |  |  |
| NCCCOCC1CN2CCN1Cc1cccc(c1)Nc1cc(ccn1)-c1cnc(nc1)NCCCNC(=O)C2 (centres unmarked) [Compound 148] |  |  |  | 9.33e-08 | 9.53 | <5 |
| NCCCOCC1CN2CCN1Cc1cccc(c1)Nc1cc(ccn1)-c1cnc(nc1)NCCCNC(=O)C2 (centres unmarked) [Compound 114] |  |  | > 1e-05 | 5.13e-07 | 29.15 |  |

Second part, the molecule after the results:

| remaining activity at 1 µM (PIK3C3 lipid kinase) [%] | IC50 (EF2K) [M] | IC50 (eEF2K) [M] | IC50 (PIK3C3 lipid kinase) [M] | VPS34_1microM_%ofcntrl (PIK3C3 lipid kinase) [%] | eEF2K_C_PThr56 pIC50 (eEF2K) | Structure (SMILES) |
| --- | --- | --- | --- | --- | --- | --- |
| 29.6 | 8.51e-09 | 7.76e-07 | 5.5e-07 |  |  | O=C1CN2CCN(CC2)Cc2cccc(c2)Nc2cc(ccn2)-c2cnc(nc2)N2CC(O)CC2CCN1 (centres unmarked) [Compound 55] |
|  | 4.27e-08 | 3.8e-06 |  | 86.17 |  | N#CC1CC2CCNC(=O)CN3CCN(CC3)Cc3cccc(c3)Nc3cc(ccn3)-c3cnc(nc3)N2C1 (centres unmarked) [Compound 77] |
|  | 4.57e-07 |  | 1.41e-07 | 16.31 | <4.52 | O=C1CN2CCN(CC2)Cc2cccc(c2)Nc2cc(ccn2)-c2cnc(nc2)NC(C(=O)O)CCN1 (centres unmarked) [Compound 117] |
| 73.4 | 4.47e-07 | 5.37e-06 |  |  |  | NC(=O)C1CCNC(=O)CN2CCN(CC2)Cc2cccc(c2)Nc2cc(ccn2)-c2cnc(nc2)N1 (centres unmarked) [Compound 123] |
| 34.9 | 6.46e-07 | 9.12e-06 |  |  |  | CN1CCCNc2ncc(cn2)-c2ccnc(c2)Nc2cccc(c2)CN2CCN(CC2)CC1=O [Compound 13] |
|  | ~2.19e-08 | ~7.94e-07 | 2.19e-07 |  |  | O=C1CN2CCN(CC2)Cc2cccc(c2)Nc2cc(ccn2)-c2cnc(nc2)NCCCN1 [Compound 33] |
| 21.6 | 7.24e-08 | 1.02e-06 | 3.24e-07 |  |  | NC1CC2CCNC(=O)CN3CCN(CC3)Cc3cccc(c3)Nc3cc(ccn3)-c3cnc(nc3)N2C1 (centres unmarked) [Compound 84] |
|  | 6.31e-07 | > 3.02e-05 | 2.95e-07 | 23.74 |  | O=C1CN2CCN(CC2)Cc2cccc(c2)Nc2cc(ccn2)-c2cnc(nc2)NC(C(=O)O)CCN1 (centres unmarked) [Compound 120] |
| 65.5 | 3.98e-07 | ~2.51e-05 |  |  |  | CNC(=O)C1CCNC(=O)CN2CCN(CC2)Cc2cccc(c2)Nc2cc(ccn2)-c2cnc(nc2)N1 (single isomer, unassigned) [Compound 124] |
